Measured values as given in article PMC9296036, “A peptide interfering with the dimerization of oncogenic KITENIN protein and its stability suppresses colorectal tumour progression” (Clinical and Translational Medicine, 2022).

What was measured:
[1] = Detection of KDIP and truncated forms in tumour and liver tissue by LC-MS/MS (MRM) after intravenous injection; assay type: in vivo, mouse; settings: tissues collected 20 min after fifth intravenous injection of KDIP 5 mg/kg, below the limit of detection
Procedure: At 20 min after fifth intravenous injection of KDIP, tumour and liver tissues were collected, immediately frozen using liquid nitrogen and ground with a pestle and mortar. One part of resultant powder by weight was homogenized with two parts of lysis buffer containing 8‐M urea, 25‐mM Tris–HCl (pH 8.5) by volume and was placed in Eppendorf tubes. This lysate was sonicated three times for 2 s with 2‐s intervals of rest at 20% amplitude on ice. Insoluble debris was removed by obtaining supernatant after centrifugation at 14 000 g, 4°C for 15 min.
Peptide extraction from serum or tissue lysate was performed by solid‐phase extraction using Oasis HLB Cartridge 1‐cm^3 (30 mg). HLB cartridges were conditioned using ACN (1 ml) and 50% ACN, .5% FA (1 ml), followed by equilibration using .5% FA (2 ml). A volume of 10‐μl serum and 20 μl of tissue lysate were added by .5% FA to be 1 ml and were loaded on equilibrated cartridges. Cartridges were washed with .5% FA (3 ml), and then peptide was eluted by 50% ACN, .5% FA (500 μl). Eluates were vacuum‐dried using Speed‐Vac and were stored at −80°C until use. Dried samples were reconstituted in .5% FA 50 and 5 μl of sample was loaded on column for LC–MS/MS analysis.
Each sample was analysed using an Agilent 1100 Series high‐performance liquid chromatography pump (Agilent Technologies, USA) coupled to an LTQ linear ion trap mass spectrometer (Thermo Finnigan, USA). Separation of peptide was carried out on a homemade C18‐fused silica column (100‐μm internal diameter) with nano‐electrospray ionization interface. […] Peptide was quantified by multiple reaction monitoring (MRM) in positive ion mode, with a spray voltage of 2.3 kV. […] Furthermore, truncated forms ([…], […]) of KDIP that were detected during stability test were also analysed by following transitions: 468.5 → 404.8 (b16 ^+5), 468.5 → 444.85 (b18 ^+5), 468.5 → 505.7 (b16 ^+4), 468.5 → 551.35 (b18 + H2O^+4), 468.5 → 555.7 (b18 ^+4), 528.45 → 448.85 (b14 ^+4), 528.45 → 499.0 (b16 ^+4), 528.45 → 598.15 (b14 ^+3), 528.45 → 659.25 (b16 + H2O^+3) and 528.45 → 664.95 (b16 ^+3). […]

[2] = target: the molecule itself; assay: SDS-PAGE in the reducing/denaturing condition and Western blot; non-transfected HCT116 and Caco2 cells, regular SDS-PAGE gel, dimer-sized band
[3] = target: the molecule itself; assay: native gel or EMSA; lysates of Caco2 cells transfected with KITENIN-V5, with or without KDIP, on a native SDS-PAGE gel in the non-reducing/non-denaturing condition; immunoblot with anti-KITENIN antibody

ARVRRRGPRRWRLVSDEAV [19‐mer, N-truncated form of KDIP found after incubation with mouse serum]
detection in regressed tumour tissues or liver by mass spectrometry [1]: not detected

VRRRGPRRWRLVSDEAV [17‐mer, N-truncated form of KDIP found after incubation with mouse serum]
detection in regressed tumour tissues or liver by mass spectrometry [1]: not detected

B1: endogenous KITENIN (natural protein, UniProt Q8TAA9 1-524, looked up)
chain: MDTESTYSGYSYYSSHSKKSHRQGERTRERHKSPRNKDGRGSEKSVTIQPPTGEPLLGNDSTRTEEVQDDNWGETTTAITGTSEHSISQEDIARISKDMEDSVGLDCKRYLGLTVASFLGLLVFLTPIAFILLPPILWRDELEPCGTICEGLFISMAFKLLILLIGTWALFFRKRRADMPRVFVFRALLLVLIFLFVVSYWLFYGVRILDSRDRNYQGIVQYAVSLVDALLFIHYLAIVLLELRQLQPMFTLQVVRSTDGESRFYSLGHLSIQRAALVVLENYYKDFTIYNPNLLTASKFRAAKHMAGLKVYNVDGPSNNATGQSRAMIAAAARRRDSSHNELYYEEAEHERRVKKRKARLVVAVEEAFIHIQRLQAEEQQKAPGEVMDPREAAQAIFPSMARALQKYLRITRQQNYHSMESILQHLAFCITNGMTPKAFLERYLSAGPTLQYDKDRWLSTQWRLVSDEAVTNGLRDGIVFVLKCLDFSLVVNVKKIPFIILSEEFIDPKSHKFVLRLQSETSV
notes: KITENIN (Vangl1), endogenous; also called endogenous KITENIN dimer; source: endogenous, HEK293T, HCT116 or Caco2 lysate
stoichiometry N [2]: 2

B2: V5-tagged KITENIN (natural protein, UniProt Q8TAA9 1-524, looked up)
chain: B1 chain
notes: KITENIN (Vangl1), wild type; also called KITENIN-V5; WT-KITENIN
stoichiometry N [3]: 2
